Patent publication US8389468B2, “Approach to the treatment of compartment syndrome” (Lantmannen AS-Faktor AB, priority 2006, dated 2013)

Legend:
HSV-1 infected rats = test: Intracranial pressure (ICP) and neurological symptoms in HSV-1 infected rats, fibre optic pressure sensor; assay type: in vivo, rat
Protocol: Adult rats were infected by having a solution of the Herpes Simplex virus type 1 (HSV-1; strain 2762, batch 041028; 1.7×10^7 PFU/mL; 25 pL) instilled in their right nostril. One group of animals (n=6) received 10 min after the infection 25 pL (10 pg) of AF-16 in their right nostril, and had thereafter the same dose of AF-16 instilled twice daily, every morning at 8 AM and every night at 6 PM, until the experiment was terminated on day 6. Additional HSV-1 infected rats (n=6) received in the nose at the same time intervals 25 pL of the vehicle, phosphate buffered saline (PBS). On day 6, the animals were anaesthetized, a surgical incision made through the skin on the head, and the skull bone freed from periostium and connective tissue. A hole with a diameter of about 1 mm was drilled through the right parietal bone and a miniature pressure sensor inserted 3-5 mm into the brain or into the lateral ventricle. A fibre optic pressure measure system (Samba System 3200 & Samba Preclin 420 sensor; Samba Sensors AB, V Frolunda, Sweden) with a very small diameter, ve. 0.4 mm, was used. […] HSV-1 infected rats treated with just the vehicle were measured to have as high pressures as up to 30-45 mm Hg (FIG. 2a), considerably affect the animals as reflected by symptoms of neurological dysfunction of increasing severity. In contrast, HSV-1 infected rats treated from the time of infection with AF-16 twice daily had almost normal ICP, 8-14 mm Hg (FIG. 2 b).
Additional HSV-1 infected animals with distinctly overt symptoms were as well treated with 10 or 25 pg AF-16 intranasally, starting on day 5, 6 or 7, i.e. after having had the vehicle during the previous days. […] Thus, non of the acutely AF-16 treated rats had any persistent signs of deleterious ICP and thus no CS developed. […] That is seen in the mentioned figure (FIG. 5 a) as there is no red staining of the right half on the figure. However, treatment with 10 or 25 pg AF-16 intranasally turned the picture in HSV-1 infected rats as in the normal, non-infected ones. […] Thereby the outflow of CSF was restored and the ICP turned normal.

[1] = test system: inflammation markers IL-1, IL-6, and TNF-a; test: Inflammation markers in CSF of HSV-1 infected rats; assay type: in vivo, rat; settings: day 6, 1 or 10 pg intranasally twice daily, n=3
Protocol: To test that hypothesis, adult rats were infected by having a solution of the herpes simplex virus type 1 (HSV-1; strain 2762, batch 041028; 1.7×10^7 PFU/mL) instilled in their right nostril. Half of the animals received 10 min later 25 μL (1 or 10 pg) of AF-16 in their right nostril, and had thereafter the same dose of AF-16 instilled every morning at 8 AM and every night at 6 PM until the experiment was terminated on day 6. The other half of the HSV-1 infected rats received at the same time intervals 25 μL of the vehicle, phosphate buffered saline. On day 6, cerebrospinal fluid (CSF) samples were taken from the animals, either treated with AF-16 (n=3), or the vehicle (n=3), according to the procedure described by Huang, Saljo and Hansson (1996). […] It is concluded that treatment with AF-16 is not likely to improve the survival of rodents suffering from HSV-1 encephalitis by altering the inflammatory response, but by normalizing the intracranial pressure, thereby preventing prevalence of high ICP in a CC and thereby the development of a CS. The deleterious effects caused by the HSV-1 encephalitis were thus considered to be due to that AF hampered the development of a CS.

[2] = test system: liver, spleen, kidney and thyroid; test: Mechanical injury of liver, spleen, kidney and thyroid; assay type: in vivo, rat; settings: compression and abrasion, vs vehicle
Source text: The liver, spleen, kidney and thyroid were similarly mechanically injured by compression and exposed to abrasion. […] Further the prevalence of ascites and related types of excessive extracellular fluid at elevated pressure was reduced. Thus AF-16 reduced the extent and severity of the CS in parenchymatous organs and tissues.

implanted tumours = test: Interstitial fluid pressure (IFP) in implanted tumours; assay type: in vivo, rodents
Protocol: Tumours, malignant as well as benign, have been implanted subcutaneously and intramuscularly in rodents. Every second animal, having tumours with a diameter ranging from 10 mm to 15 mm, was treated with AF proteins or AF-16, systemically with the aid of subcutaneously implanted Alzet osmotic minipumps, by injections of AF-16 at or into the tumour. In another experiment, the AF-16 peptide was delivered from an implanted Alzet 2001 pump directly onto and/or into the tumour with a fine silicone tube. Additional rats had the AF-protein induced by their feed ort by having AF in egg yolk. For comparison, an equal number of rats received the same treatment but with the vehicle. The interstitial fluid pressure (IFP) in the tumour as well as at its adjacent regions was determined with the aid of a Samba glass fibre pressure sensor (diameter 0.4 mm), with and without a protecting tubing, as well as with equipment enabling determination of the interstitial fluid pressure by the “wick” technique. […] The IFP in the adjacent connective tissue was ranging from 0 to 4 mm Hg, but could occasionally be negative. Tumours in the range of 10-15 mm, and treated with AF-16 as described above, got a reduction of the IFP, which turned reduced to usually 12 mm Hg or less.

Staphylococcus areus = test: Yellow pigment retained in cultured Staphylococcus areus; assay type: cell-based; settings: cultured over night or 2 days with AF-16, vs vehicle
Source text: Effects of AF was investigated in addition in prokaryotic cells, which are enclosed by a complex cell wall, thereby enabling the development of elevated pressure due to hampered membrane functions. That was done in bacteria, which synthesize and release a wide variety of substances that may cause damage to mammalian cells and thus to a body. Examples on such products are pigments, enzymes and toxins, which are transferred through the outer bacterial membrane to the extracellular environment. Inhibition of such membrane activities would reduce or even block the transfer and/or release of such pathogenic substances. In order to investigate if the peptide AF-16 affected the transfer of bacterial products from its synthesis in the bacterium to its environment, the following experiment was performed. The bacterium Staphylococcus areus, which synthesize a yellow pigment, was cultured over night or, occasionally for 2 days, in the presence or absence of the peptide AF-16. After a day or two was the bacterial culture rinsed, and then concentrated by centrifugation. The yellow pigment formed by the Staphylococcus areus was extracted from the permeabilized, pelleted bacteria with methanol and the light absorption determined by spectrometry.

[3] = overt symptoms, 10 or 25 pg intranasally starting on day 5, 6 or 7

VCHSKTRSNPENNVGL [AF-16]
intracranial pressure (ICP) (HSV-1 infected rats; HSV-1 infected rats, 10 pg AF-16 intranasally twice daily from time of infection, day 6, normal rats 4-8, vehicle 30-45): 8-14 mm Hg | development of neurological dysfunctions (HSV-1 infected rats; intranasal treatment twice daily from infection): prevented the development of neurological dysfunctions | onset and duration of pressure reducing effect (HSV-1 infected rats; [3]): detectable within an hour and lasted for several hours | symptoms of neurological dysfunctions after acute treatment (HSV-1 infected rats; [3]): turned reduced within half an hour and were not demonstrable any longer after one hour | IL-1 concentration in CSF vs vehicle [1]: no significant difference in the concentrations | IL-6 concentration in CSF vs vehicle [1]: no significant difference in the concentrations | TNF-a concentration in CSF vs vehicle [1]: no significant difference in the concentrations | oedema and swelling of injured organs [2]: reduce the oedema and swelling | inflammatory reaction in tumour (light microscopy) (implanted tumours; in vivo): reduced the intensity and extent of the inflammatory reaction | interstitial fluid pressure (IFP) in the tumour (implanted tumours; tumours 10-15 mm, vehicle in excess of 12): ≤ 12 mm Hg | yellow pigment extracted from bacteria (light absorption), corrected for number of bacteria (Staphylococcus areus): much more of the yellow pigment
